We go through two sequences from patent US9809634B2, “Composition comprising branched multipeptide vaccine and vaccine comprising the same” (INDUSTRY FOUNDATION OF CHONNAM NATIONAL UNIVERSITY, priority 2015, dated 2017).

This assay has as its system T2 cell line expressing HLA-A2. In words: Binding capacity to T-lymphocyte of each subsequence residue (T2 cells, HLA-A2-FITC staining, flow cytometry). It is filed as cell-based, human. As to conditions: T2 cells cultured overnight with peptide and beta2-microglobulin; FIG. 3; compared with the other subsequence residues of the same tumor antigen. The procedure:
The binding capacity to T-lymphocyte, of each of the subsequence residues shown in Table 1 above, was measured (FIG. 3).
Measurement of binding capacity between T-lymphocyte and each of the subsequence residues
T2 cell line (Korea Cell Line Bank) is […] expressing HLA-A2. The peptide and beta2-microglobulin on T2 cells were cultured overnight, and the T2 cells were stained with antihuman HLA-A2-FITCmAb, and analyzed by a FACS Caliber flow cytometer and WinMDI software.
The binding capacity of subsequence residue was calculated from mean fluorescence with the peptide and mean fluorescence without the peptide according to the following Equation: […]

On to “LLLFGLLGV (Peptide CD99-9) [SEQ ID NO: 10]”, for which the “binding capacity to T-lymphocyte” value is “most excellent”.

Turning to LMLGEFLKL [SEQ ID NO: 9], the “binding capacity to T-lymphocyte” value was “most excellent”.
